# Source: patent publication US4440784A, “Anti-inflammatory, analgesic, and antipyretic pharmaceutical composition” (Kanegafuchi Chemical Industry Company, Ltd., priority 1981, dated 1984)
# Like-named read-outs stand apart in the source and are kept apart here.
# Columns and labels:
# [1] = toxicity test in mice (LD50); conditions: in vivo, po; mouse, 14 days observation
# Procedure: Female ICR strain mice weighing 20~25 g in groups of six each were used for toxicity tests. Test compounds suspended in 2.5% acacia were administered p.o. to the mice. The animals were observed daily for 14 days after the administration. The LD50 values were estimated from mortality (No. of dead mice/No. of mice used).
# [2] = system: carrageenan-induced paw edema in rats; experiment: carrageenan-induced paw edema in rats (acute anti-inflammatory activity); format: in vivo, male Wistar strain rats; conditions: po, rat, p.o., 50 mg/kg
# Procedure: (1) An acute anti-inflammatory activity was evaluated by the method of carrageenan-induced paw edema in rats [C. A. Winter et al., Proc. Soc. […] Six male Wistar strain rats weighing 150~180 g were used in each group. […] The volume of each paw edema was measured 3 and 5 hours after the injection of carrageenan. Percent edema inhibition was calculated by the following equation. [formula]
# [3] = system: yeast-induced fever in rats; experiment: yeast-induced fever in rats (antipyretic activity); format: in vivo, male Wistar strain rats; conditions: po, rat, p.o., 100 mg/kg
# Procedure: Five male Wistar strain rats weighing 150~180 g were used in each group. A 20% Baker's yeast suspension in 0.9% NaCl was injected s.c. into the dorsal region of rats in a volume of 1 ml/100 g body weight. […] The rectal temperature was determined with a thermometer, 1, 3 and 5 hours after the administration of test compounds. Percent inhibition was calculated by the following equation. [formula]
# [4] = system: adjuvant-induced arthritis in rats; experiment: adjuvant-induced arthritis in rats (chronic anti-inflammatory activity); format: in vivo, male Sprague-Dawley strain rats; conditions: rat, p.o. once daily
# Procedure: (3) A chronic anti-inflammatory activity was evaluated by the method of adjuvant-induced arthritis in rats [D. T. Walz et al., J. Pharmacol. and Exp. Ther., 178, 223 (1971)]. Eight male Sprague-Dawley strain rats weighing 190~230 g were used in each group. Into the left hind paw of rats was injected i.d. 0.5 mg of Mycobacterium butyricum suspended in 0.05 ml of paraffin oil. Test compounds suspended in 2.5% acacia were administered p.o. once daily for 21 days, starting on the day of the injection of an adjuvant (day 0). Paw volumes of adjuvant-injected and uninjected feet were measured on day 14 and on day 21. Percent inhibition was calculated by the following equation. [formula]
# [5] = system: paper disk-induced granuloma in rats; experiment: paper disk-induced granuloma in rats (sub-chronic anti-inflammatory activity); format: in vivo, male Wistar strain rats; conditions: rat, p.o. once daily for 7 days
# Procedure: Six male Wistar strain rats weighing 150~180 g were used in each group. Each paper disk (29±1 mg) was implanted s.c. into the bilateral area of the scapula of rats under anesthesia with amobarbital sodium. […] The rats were killed on day 7, at which time the paper disks with surrounding granulomatous tissues were removed and dried to constant weight overnight, and weighed. Percent inhibition was calculated by the following equation. [formula]
# [6] = system: acetic acid-induced writhing in mice; experiment: acetic acid-induced writhing in mice (analgesic activity); format: in vivo, male ddY strain mice; conditions: po; mouse, p.o., 100 mg/kg, 1 hour before acetic acid i.p.; read-out: Inhibition (writhing)
# Procedure: An analgesic activity was evaluated by the method of acetic acid-induced writhing in mice [R. Koster et al., Federation Proc., 18, 412 (1959)]. Ten male ddY strain mice weighing 20~25 g were used in each group. Test compounds suspended in 2.5% acacia were administered p.o. to the mice. One hour later, the mice were injected i.p. with 0.6% acetic acid in a volume of 0.1 ml/10 g body weight. The number of writhes in each of mice was counted for 20 minutes after the injection of the acetic acid. Percent inhibition was calculated by the following equation. [formula]
compound,measurement,setting,value
"CC(=O)C=Cc1cc(C(C)(C)C)c(O)c(C(C)(C)C)c1 [Compound V, β-Acetyl-3,5-di-tert-butyl-4-hydroxystyrene]",LD50 at 336 h,[1],> 1000 mg/kg
same,inhibition in vivo at 50 mg/kg,"[2]; 3 hours after carrageenan, read-out: Percent edema inhibition, 3 hours",43.2%
same,inhibition in vivo at 50 mg/kg,"[2]; 5 hours after carrageenan, read-out: Percent edema inhibition, 5 hours",50%
same,inhibition in vivo at 100 mg/kg,"[3]; 1 hour after administration, read-out: Inhibition (fever), 1 hour",34.5%
same,inhibition in vivo at 100 mg/kg,"[3]; 3 hours after administration, read-out: Inhibition (fever), 3 hours",70.9%
same,inhibition in vivo at 100 mg/kg,"[3]; 5 hours after administration, read-out: Inhibition (fever), 5 hours",64.9%
same,"Inhibition, injected foot, Day 14",[4]; 12.5 mg/kg/day,12.0%
same,"Inhibition, injected foot, Day 21",[4]; 12.5 mg/kg/day,29.6%
same,"Inhibition, uninjected foot, Day 14",[4]; 12.5 mg/kg/day,10.6%
same,"Inhibition, uninjected foot, Day 21",[4]; 12.5 mg/kg/day,14.7%
same,"Inhibition, injected foot, Day 14",[4]; 50 mg/kg/day,37.3%
same,"Inhibition, injected foot, Day 21",[4]; 50 mg/kg/day,58.8%
same,"Inhibition, uninjected foot, Day 14",[4]; 50 mg/kg/day,74.5%
same,"Inhibition, uninjected foot, Day 21",[4]; 50 mg/kg/day,69.3%
same,Inhibition (granuloma),[5]; 25 mg/kg/day,29.4%
same,Inhibition (granuloma),[5]; 100 mg/kg/day,29.0%
same,inhibition in vivo at 100 mg/kg,[6],53.1%
